Test results as given in patent US20240158348A1, “HERBICIDAL CYCLIC AMIDES N-SUBSTITUTED WITH A HALOALKYLSULFONYLANILIDE GROUP” (FMC Corporation, priority 2021, published 2024).

Assays:
Type in all cases: in vivo
[1] = tested on: corn (Zea mays); test: Test C preemergence, corn; conditions: 0 is no effect, 100 is complete control
Summary of the method: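 Greenhouse pot test. Compounds in a non-phytotoxic solvent with surfactant were applied to a loam–sand soil mix either preemergence as a directed spray or postemergence to plants at the one- to two-leaf stage; 0–100 visual ratings followed after 10 or 12 days.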

[2] = tested on: rice (Oryza sativa); test: Test D flooded paddy test, rice; set-up: key: 0 = no effect, 100 = complete control; conditions: 250 g ai/ha, Flood; applied to paddy water at 2-leaf stage; visual rating after 13 days; scale 0 (no effect) to 100 (complete control)
Summary of the method: (§1)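 Pots holding 2-leaf-stage plants were flooded 3 cm deep and dosed via the water, which stayed at that level. After 13 greenhouse days, injury was scored visually against untreated controls, 0 (none) to 100 (complete control); a dash marks no test result.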

[3] = tested on: soybean (Glycine max); test: Test C preemergence, soybean; conditions: 0 is no effect, 100 is complete control
Summary of the method: (§2)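 Herbicidal effect was estimated visually on a 0–100 scale 10 or 12 days after spraying. Formulation: non-phytotoxic solvent mixture with surfactant. Timing: directed soil spray after sowing, or postemergence on seedlings bearing one or two leaves.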

[4] = tested on: foxtail, giant (giant foxtail, Setaria faberi); test: Test C preemergence, giant foxtail; conditions: 0 is no effect, 100 is complete control
Summary of the method: as §2

[5] = tested on: oat, wild (wild oat, Avena fatua); test: Test C preemergence, wild oat; conditions: 0 is no effect, 100 is complete control
Summary of the method: as §2

[6] = tested on: blackgrass (Alopecurus myosuroides); test: Test C postemergence, blackgrass; conditions: visual injury, 0 to 100 scale (0 no effect, 100 complete control)
Summary of the method: as §2

[7] = tested on: ducksalad (Heteranthera limosa); test: Test D flooded paddy test, ducksalad; set-up: key: 0 = no effect, 100 = complete control; conditions: 250 g ai/ha, Flood; applied to paddy water at 2-leaf stage; visual rating after 13 days; scale 0 (no effect) to 100 (complete control)
Summary of the method: as §1

[8] = tested on: pigweed, palmer (palmer amaranth, Amaranthus palmeri); test: Test C postemergence, palmer amaranth; conditions: for Pigweed, Palmer plant response rating: visual injury, 0 to 100 scale (0 no effect, 100 complete control); for Plant response rating (0 to 100 scale), Pigweed, Palmer: 0 is no effect, 100 is complete control
Summary of the method: as §2

[9] = tested on: kochia (Bassia scoparia); test: Test C postemergence, kochia; conditions: for Kochia plant response rating: visual injury, 0 to 100 scale (0 no effect, 100 complete control); for Plant response rating (0 to 100 scale), Kochia: 0 is no effect, 100 is complete control
Summary of the method: as §2

Compound | Plant response rating (0 to 100 scale), Corn ([1]; 31 g ai/ha Preemergence) | Plant response rating (0 to 100 scale), Corn ([1]; 125 g ai/ha Preemergence) | Plant response rating, Rice [2] | Plant response rating (0 to 100 scale), Soybean ([3]; 31 g ai/ha Preemergence) | Plant response rating (0 to 100 scale), Soybean ([3]; 125 g ai/ha Preemergence) | Plant response rating (0 to 100 scale), Foxtail, Giant ([4]; 31 g ai/ha Preemergence) | Plant response rating (0 to 100 scale), Foxtail, Giant ([4]; 125 g ai/ha Preemergence) | Plant response rating (0 to 100 scale), Oat, Wild ([5]; 31 g ai/ha Preemergence) | Plant response rating (0 to 100 scale), Oat, Wild ([5]; 125 g ai/ha Preemergence) | Blackgrass plant response rating ([6]; 31 g ai/ha Postemergence) | Plant response rating, Ducksalad [7] | Pigweed, Palmer plant response rating ([8]; 31 g ai/ha Postemergence) | Plant response rating (0 to 100 scale), Pigweed, Palmer ([8]; 125 g ai/ha Postemergence) | Kochia plant response rating ([9]; 31 g ai/ha Postemergence) | Plant response rating (0 to 100 scale), Kochia ([9]; 125 g ai/ha Postemergence) | Blackgrass plant response rating ([6]; 125 g ai/ha Postemergence) | Pigweed, Palmer plant response rating ([8]; 125 g ai/ha Postemergence) | Kochia plant response rating ([9]; 125 g ai/ha Postemergence)
CC(=O)N(c1cc(N2CCC(OC3CC3)C2=O)c(C)cc1C)S(=O)(=O)C(F)(F)F (stereo not shown) [Compound 17] | 70 | 90 | 15 | 80 | 100 | 90 | 100 | 90 | 100 | 70 | 95 | 40 | 90 | 80 | 90 | – | – | –
Cc1c(N2CCC(OC3CC3)C2=O)cc(N(C(=O)OCC(C)C)S(=O)(=O)C(F)(F)F)c(C)c1C (stereo not shown) [Compound 50] | 10 | 90 | 20 | 30 | 60 | 50 | 100 | 70 | 80 | 10 | 90 | 20 | – | 20 | – | 40 | 60 | 70
Cc1c(NS(=O)(=O)C(F)(F)F)cc(N2CCC(OC3CC3)C2=O)c(C)c1F (stereo not shown) [Compound 26] | 60 | 90 | 65 | 70 | 90 | 90 | 100 | 60 | 100 | 40 | 75 | 70 | – | 70 | 90 | – | 90 | –
Cc1cc(C)c(N(COC(=O)C(C)(C)C)S(=O)(=O)C(F)(F)F)cc1N1CCC(OCC2CC2)C1=O (stereo not shown) [Compound 53] | 0 | 50 | 25 | 20 | 40 | 10 | 90 | 0 | 90 | 20 | 70 | 40 | – | 20 | – | 60 | 70 | 50
Cc1cc(C)c(N2CCC(O)C2=O)cc1NS(=O)(=O)C(F)(F)F (stereo not shown) [Compound 14] | 10 | 100 | 25 | 100 | 100 | 80 | 100 | 10 | 60 | 10 | 65 | 40 | 90 | 50 | 70 | – | – | –
CC(=O)N(c1cc(N2CCC(OC3CC3)C2=O)c(C)cc1Cl)S(=O)(=O)C(F)(F)F (stereo not shown) [Compound 38] | 20 | 80 | 0 | 80 | 90 | 80 | 100 | 30 | 100 | 40 | 65 | 50 | – | 80 | 90 | – | 80 | –
Cc1c(N2CCC(OC3CCC3)C2=O)cc(N(COC(=O)C(C)(C)C)S(=O)(=O)C(F)(F)F)c(C)c1F (stereo not shown) [Compound 28] | 0 | 20 | 30 | 20 | 80 | 70 | 100 | 0 | 20 | 10 | 70 | 50 | – | 50 | 80 | – | 90 | –
Cc1cc(C)c(N(COC(=O)C(C)(C)C)S(=O)(=O)C(F)(F)F)cc1N1CCC(OCC2CC(F)(F)C2)C1=O (stereo not shown) [Compound 55] | 0 | 10 | 15 | 0 | 0 | 0 | 10 | 0 | 20 | 0 | 90 | 0 | – | 0 | – | 40 | 40 | 20
Cc1c(NS(=O)(=O)C(F)(F)F)cc(N2CCCC(OC3CC3)C2=O)c(C)c1F (stereo not shown) [Compound 35] | 30 | 50 | 0 | 50 | 90 | 90 | 100 | 20 | 90 | 50 | 55 | 40 | – | 50 | 90 | – | 70 | –
Cc1c(NS(=O)(=O)C(F)(F)F)cc(N2CCC(OC3CC3)C2=O)c(C)c1C (stereo not shown) [Compound 47] | 30 | 90 | 30 | 50 | 90 | 100 | 100 | 80 | 100 | 40 | 95 | 30 | – | 40 | – | 70 | 70 | 80
C=CCO/N=C1\CCN(c2cc(NS(=O)(=O)C(F)(F)F)c(C)cc2C)C1=O [Compound 11] | 50 | 100 | 45 | 50 | 90 | 100 | 100 | 30 | 100 | 40 | 100 | 40 | 90 | 40 | 90 | – | – | –
Cc1cc(C)c(N2CCC(OCC3CC3)C2=O)cc1NS(=O)(=O)C(F)(F)F (stereo not shown) [Compound 22] | 90 | 90 | 55 | 80 | 90 | 100 | 100 | 90 | 100 | 20 | 90 | 50 | 80 | 60 | 70 | – | – | –
Cc1cc(C)c(N2CCC(OC3CC3)C2=O)cc1NS(=O)(=O)C(F)(F)F (single isomer, unassigned) [Compound 30] | 90 | 90 | 75 | 80 | 90 | 100 | 100 | 80 | 100 | 50 | 90 | 60 | – | 80 | 90 | – | 90 | –
